# Experiments:
# [1] = test system: progressive malignant pleural mesothelioma (MPM); experiment: Phase II single-arm, multi-centric trial of lurbinectedin monotherapy: efficacy (PFS, OS, response); assay type: in vivo, human
# Method: In order to evaluate the efficacy of lurbinectedin in the treatment of progressive malignant pleural mesothelioma (MPM), a Phase II single-arm, multi-centric, international trial was performed.
# (§1) The primary endpoint was progression-free survival at 12 weeks (PFS12wks), defined as the absence of progression or death due to any cause during the first 12 weeks (±2 weeks) after registration. Secondary endpoints included progression-free survival (PFS), defined as the time from registration until radiologic progression or death due to any cause, whichever occurs first; overall survival (OS), defined as the time from registration until death due to any cause; objective response rate (ORR), defined as the proportion of patients who achieved complete (CR) or partial remission (PR) during the trial treatment; disease control rate (DCR) defined as the sum of CR, PR and stable disease (SD) at least for 12 weeks (SD≥12wks); duration of disease control, defined as the time from registration to progression or death due to any cause whichever occurs first for patients who had CR, PR or SD≥12wks; and adverse events (AE). All AEs were assessed according to NCI CTCAE v4.03. Patients lost to follow-up were censored at the last date they were known to be alive.
# This trial was conducted in 6 centers in Switzerland and 3 in Italy. Subjects enrolled in this clinical trial were adult (age ≥ 18 years) patients having histologically or cytologically confirmed MPM, an Eastern Cooperative Oncology Group (ECOG) status of 0-1 and had progressed on or after one line of platinum-pemetrexed chemotherapy without being amenable to local treatment. Further inclusion criteria required an adequate hepatic, renal and bone marrow function (absolute neutrophil count ≥ 2 × 10^9 /L, platelet count ≥ 100 × 10^9 /L; aspartate aminotransferase and alanine aminotransferase ≤ 3.0 × ULN; creatinine clearance ≥ 30 mL/min/1.73).
# Eligible patients could additionally have received one prior line of immunotherapy, but more than one lines of chemotherapy, including pemetrexed rechallenge, were not allowed. Further exclusion criteria covered known brain metastases or leptomeningeal disease, history of other hematologic or primary solid tumors within five years prior to registration (with the exception of curatively treated basal or squamous cell carcinoma of the skin, properly treated in situ malignant melanoma, in situ carcinoma of the uterine cervix or pT1-2 prostate cancer with Gleason score ≤6), concomitant use of anti-cancer surgery or radiotherapy (except for local pain control or pleurodesis) and adverse events Grade ≥2 derived from previous treatment.
# (§2) Lurbinectedin was given every 3 weeks at a dose of 3.2 mg/m^2 as a 1-hour intravenous infusion through peripheral or central lines. Standard antiemetic prophylaxis (corticosteroids or serotonin (5-HT3) antagonists) was administered prior to chemotherapy. […] In case of third re-emergence of Grade 3-4 toxicity treatment was permanently discontinued. Specifically for leucopenia Grade 3-4 and/or febrile neutropenia there was mandatory secondary G-CSF prophylaxis together with dose reduction by one level.
# (§3) Patients were followed clinically and with laboratory tests at time of chemotherapy administration and additionally with contrast enhanced CT- or PET/CT scans every 6 weeks. […] In case of treatment discontinuation for any reason, adverse events were reported for 30 days after last treatment application. For those cases where lurbinectedin was stopped without manifest progression radiology scans were performed every 8 weeks during the follow-up period otherwise patients were followed-up via telephone every 12 weeks for survival status.
# A Simon two-stage design was used as presented by Simon R. (Control Clin Trials. 1989 Mar;10(1):1-10). We had set our null-hypothesis p0 at PFS12wks ≤35%, translated to a median PFS of ≤ 2 months. […]
# [2] = Phase II trial of lurbinectedin monotherapy: adverse events (NCI CTCAE v4.03) and tolerability; assay type: in vivo
# Source text: as §1
# as §2, with “Lurbinectedin was given every 3 weeks at a dose of 3.2 mg/m^2 as a 1-hour intravenous infusion through peripheral or central lines.” left out
# as §3
molecule,measurement,setting,value
COc1ccc2[nH]c3c(c2c1)CCN[C@]31CS[C@@H]2c3c(OC(C)=O)c(C)c4c(c3[C@H](COC1=O)N1[C@@H]2[C@H]2c3c(cc(C)c(OC)c3O)C[C@@H]([C@@H]1O)N2C)OCO4 (stereo in doubt) [lurbinectedin],patients with disease control lasting for 8 months or longer,[1]; 6/22 patients,27.3%
same,median OS,[1]; <6 months progression-free interval on prior pemetrexed,8.8 months
same,median OS,[1]; >=6 months progression-free interval on prior pemetrexed,13.3 months
same,PFS12wks,[1]; additional prior immunotherapy,70%
same,median OS,[1]; additional prior immunotherapy,10.4 months
same,median PFS,[1]; additional prior immunotherapy,3.2 months
same,DCR,[1]; all 42 patients,52.4%
same,ORR,[1]; all 42 patients,4.8%
same,complete remission (CR),[1]; all 42 patients,One
same,partial remission (PR),[1]; all 42 patients,one
same,stable disease,[1]; all 42 patients,20 patients
same,PFS12wks (primary endpoint) reached,"[1]; all patients, 22/42, 90% CI 38.7-63.5, p=0.015",52.4%
same,"PFS12wks, Kaplan-Meier method at 12 weeks","[1]; all patients, 90% CI 49.7-74.4",63.5%
same,median PFS,"[1]; all patients, 95% CI 2.6-5.5, median follow-up 14.9 months",4.1 months
same,9 months PFS%,"[1]; all patients, 95% CI 4.7-24.9",12.7%
same,median OS,"[1]; all patients, 95% CI 8.8-14.7",11.1 months
same,6 months PFS%,"[1]; all patients, 95% CI 17.1-44.9",30.5%
same,12 months OS,"[1]; all patients, 95% CI 28.1-60.3",44.9%
same,3 months PFS%,"[1]; all patients, 95% CI 41.8-71.7",58.4%
same,6 months OS,"[1]; all patients, 95% CI 57.7-84.6",73.8%
same,PFS12wks,[1]; epithelioid histology,63.6%
same,median OS,[1]; epithelioid histology,12.4 months
same,median PFS,[1]; epithelioid histology,4.1 months
same,PFS12wks reached (interim analysis),"[1]; first 21 patients, Simon 2-stage, 11 patients",52.4%
same,PFS12wks,[1]; non-epithelioid histology,62.5%
same,median OS,[1]; non-epithelioid histology,10.0 months
same,median PFS,[1]; non-epithelioid histology,3.7 months
same,patients who had died at the time of analyses,"[1]; of 42, progression 23, viral pneumonitis 1, suicide 1, heart failure 1",26 patients
same,median duration of disease control,"[1]; patients with CR, PR or SD>=12wks, 95% CI 5.2-7.4",6.6 months
same,PFS12wks,[1]; prior chemotherapy alone,61.4%
same,median OS,[1]; prior chemotherapy alone,11.9 months
same,median PFS,[1]; prior chemotherapy alone,4.1 months
same,median PFS,[1]; progressed on previous platinum-pemetrexed in >=6 months,4.3 months
same,PFS12wks,[1]; progressed on previous platinum-pemetrexed in >=6 months (28 patients),67.9%
same,median PFS,[1]; progressed on previous platinum-pemetrexed within <6 months,3.0 months
same,PFS12wks,[1]; progressed on previous platinum-pemetrexed within <6 months (14 patients),53.8%
same,AEs,"[2]; Grade 5, N = 42",0 (0.0%) n (%)
same,Lurbinectedin-related AEs,"[2]; Grade 5, N = 42",0.0 (0.0%) n (%)
same,treatment-related death,[2]; N=42,no treatment-related death
same,"Abdominal pain, lurbinectedin-related AE","[2]; human, in vivo",1 (2.4%) n (%)
same,"Alkaline phosphatase increased, lurbinectedin-related AE","[2]; human, in vivo",1 (2.4%) n (%)
same,"Aspartate aminotransferase increased, lurbinectedin-related AE","[2]; human, in vivo",2 (4.8%) n (%)
same,"Blood bilirubin increased, lurbinectedin-related AE","[2]; human, in vivo",3 (7.1%) n (%)
same,"Cholangitis, lurbinectedin-related AE","[2]; human, in vivo",1 (2.4%) n (%)
same,"Confusion, lurbinectedin-related AE","[2]; human, in vivo",1 (2.4%) n (%)
same,"Cough, lurbinectedin-related AE","[2]; human, in vivo",1 (2.4%) n (%)
same,"Creatinine increased, lurbinectedin-related AE","[2]; human, in vivo",1 (2.4%) n (%)
same,"Diarrhea, lurbinectedin-related AE","[2]; human, in vivo",3 (7.1%) n (%)
same,"Dizziness, lurbinectedin-related AE","[2]; human, in vivo",2 (4.8%) n (%)
same,"Dry skin, lurbinectedin-related AE","[2]; human, in vivo",2 (4.8%) n (%)
same,"Dysgeusia, lurbinectedin-related AE","[2]; human, in vivo",1 (2.4%) n (%)
same,"Dyspepsia, lurbinectedin-related AE","[2]; human, in vivo",1 (2.4%) n (%)
same,"Dysphagia, lurbinectedin-related AE","[2]; human, in vivo",1 (2.4%) n (%)
same,"Edema limbs, lurbinectedin-related AE","[2]; human, in vivo",1 (2.4%) n (%)
same,"Febrile neutropenia, lurbinectedin-related AE","[2]; human, in vivo",4 (9.5%) n (%)
same,"Flu like symptoms, lurbinectedin-related AE","[2]; human, in vivo",1 (2.4%) n (%)
same,"Halitosis, lurbinectedin-related AE","[2]; human, in vivo",1 (2.4%) n (%)
same,"Headache, lurbinectedin-related AE","[2]; human, in vivo",1 (2.4%) n (%)
same,"Hypertension, lurbinectedin-related AE","[2]; human, in vivo",1 (2.4%) n (%)
same,"Hypomagnesemia, lurbinectedin-related AE","[2]; human, in vivo",5 (11.9%) n (%)
same,"Infection of unknown origin, lurbinectedin-related AE","[2]; human, in vivo",1 (2.4%) n (%)
same,"Infections with unknown origine, lurbinectedin-related AE","[2]; human, in vivo",1 (2.4%) n (%)
same,"Insomnia, lurbinectedin-related AE","[2]; human, in vivo",1 (2.4%) n (%)
same,"Lung infection, lurbinectedin-related AE","[2]; human, in vivo",1 (2.4%) n (%)
same,"Memory impairment, lurbinectedin-related AE","[2]; human, in vivo",1 (2.4%) n (%)
same,"Pancytopenia, lurbinectedin-related AE","[2]; human, in vivo",1 (2.4%) n (%)
same,"Productive cough, lurbinectedin-related AE","[2]; human, in vivo",1 (2.4%) n (%)
same,"Skin infection, lurbinectedin-related AE","[2]; human, in vivo",1 (2.4%) n (%)
same,"Superficial thrombophlebitis, lurbinectedin-related AE","[2]; human, in vivo",1 (2.4%) n (%)
same,"Urea increased, lurbinectedin-related AE","[2]; human, in vivo",1 (2.4%) n (%)
same,"Vertigo, lurbinectedin-related AE","[2]; human, in vivo",1 (2.4%) n (%)
same,"Watering eyes, lurbinectedin-related AE","[2]; human, in vivo",1 (2.4%) n (%)
same,"Weight loss, lurbinectedin-related AE","[2]; human, in vivo",2 (4.8%) n (%)
same,"White blood cell decreased, lurbinectedin-related AE","[2]; human, in vivo",3 (7.1%) n (%)
same,all other Grade 3-4 lurbinectedin-related toxicities,"[2]; human, in vivo",< 10%
same,dose reductions for which AEs were the reason,"[2]; human, in vivo",91.7%
same,"fatigue, lurbinectedin-related AE Grade 3-4","[2]; human, in vivo",16.7%
same,febrile neutropenia,"[2]; human, in vivo",9.5%
same,"herpes zoster, lurbinectedin-related AE","[2]; human, in vivo",1 (2.4%) n (%)
same,"neutropenia, lurbinectedin-related AE Grade 3-4","[2]; human, in vivo",23.8%
same,patients showing no lurbinectedin-related AEs,"[2]; human, in vivo",AE: adverse event; ^1: 4 patients (9.5%) showed no lurbinectedin-related AEs
same,patients with at least one adverse event (AE) of any grade,"[2]; human, in vivo",100%
same,patients with at least one dose reduction,"[2]; human, in vivo",28.6%
same,patients with lurbinectedin-related AEs Grade 3-4,"[2]; human, in vivo",47.6%
same,patients with treatment delayed at least once,"[2]; human, in vivo",50%
same,patients with treatment related AEs (any grade),"[2]; human, in vivo",90.5%
same,patients with two dose reductions,"[2]; human, in vivo",2/42
same,treatment delay caused by AEs,"[2]; human, in vivo",26.2%
same,"Mucositis oral, lurbinectedin-related AE","[2]; human, in vivo, po",1 (2.4%) n (%)
same,treatment discontinuation due to toxicity,[2]; in vivo,no treatment discontinuation due to toxicity
"G-CSF: granulocyte colony-stimulating factor, given as prophylaxis for leucopenia/febrile neutropenia (protein, UniProt P09919 31-207, looked up) Granulocyte …: TPLGPASSLPQSFLLKCLEQVRKIQGDGAALQEKLVSECATYKLCHPEELVLLGHSLGIPWAPLSSCPSQALQLAGCLSQLHSGLFLYQGLLQALEGISPELGPTLDTLQLDVADFATTIWQQMEELGMAPALQPTQGAMPAFASAFQRRAGGVLVASHLQSFLEVSYRVLRHLAQP",incidence of grade 3-4 neutropenia,[2]; G-CSF given in patients on lurbinectedin,diminished
